For one data set, the system named is T. equiperdum (BoTat1). In words: resazurin drug sensitivity assay, T. equiperdum. In kind it is cell-based, Trypanosoma equiperdum. To be noted: for T. equiperdum RF: RF = EC50 (parasite)/EC50(s427 WT); for T. equiperdum SI: SI = EC50 (HEK)/EC50(parasite).
The subject of the next data set is T. b. brucei B48. In words: microbe, parasite or virus in culture. In kind it is cell-based, Trypanosoma brucei brucei. The note with it: for T. b. brucei B48 RF: RF = EC50 (parasite)/EC50(s427 WT); for EC50: Trypanosoma brucei; for T. b. brucei B48 SI: SI = EC50 (HEK)/EC50(parasite).
Data set [1] concerns Leishmania mexicana promastigotes. The data set can be described thus: resazurin drug sensitivity assay, L. mexicana promastigotes. It is filed as cell-based. To be noted: for EC50: Leishmania mexicana.
Data set [2] has as its system T. b. brucei s427. In words: resazurin drug sensitivity assay, T. b. brucei s427 wild-type bloodstream forms. It is filed as cell-based, Trypanosoma brucei brucei. To be noted: for EC50: read-out: T. b. brucei s427 EC50; for T. b. brucei s427 SI: SI = EC50 (HEK)/EC50(parasite). In general terms: Alamar Blue is a resazurin reagent that responds to reducing activity.
The next data set relates to T. evansi (AnTat 3/3). In words: resazurin drug sensitivity assay, T. evansi. In kind it is cell-based, Trypanosoma evansi. To be noted: for EC50: Trypanosoma evansi; for T. evansi RF: RF = EC50 (parasite)/EC50(s427 WT); for T. evansi SI: SI = EC50 (HEK)/EC50(parasite).
For data set [3], the system named is Trypanosoma congolense (IL3000). In words: resazurin drug sensitivity assay, T. congolense. The note with it: for T. congolense RF: RF = EC50 (parasite)/EC50(s427 WT). It is filed as cell-based.
For the next data set, the system named is HEK 293 cells. The data set can be described thus: toxicity assay on HEK 293 cells (Alamar Blue). The note with it: for EC50: read-out: HEK 293 EC50, average ± SEM.
For data set [4], the system named is T. b. brucei s427. Details: method as in PMID 27313159. The note with it: cited from earlier work.
[5] abbreviates: a = EC50 of control for 1, 3, 4.
[6] abbreviates: b = EC50 of control for 5, 6, 7.
The mark [7] stands for this setting: Trypanosoma equiperdum, average ± SEM.
The mark [8] stands for this setting: read-out: T. b. brucei B48 EC50, multi-drug-resistant clone, average ± SEM.
[9] abbreviates: Trypanosoma congolense, average ± SEM.

The values below come from publication PMC12156181, “Antitrypanosomal and Antileishmanial Activities of Tacca leontopetaloides Tubers and Zanthoxylum zanthoxyloides Stem Bark” (Molecules, 2025).

Like-named read-outs stand apart in the source and are kept apart here.

On to `N=C(N)c1ccc(OCCCCCOc2ccc(C(=N)N)cc2)cc1` [PMD, pentamidine isethionate, reference compound], for which the EC50 with T. equiperdum (BoTat1) (Trypanosoma equiperdum, a = EC50 of control for 1, 3, 4) is 0.0081 µM; with T. equiperdum (BoTat1) (Trypanosoma equiperdum, b = EC50 of control for 5, 6, 7), 0.0033 µM; with T. b. brucei B48 (read-out: T. b. brucei B48 EC50, a = EC50 of control for 1, 3, 4) it was 0.312 µM; with T. b. brucei B48 (read-out: T. b. brucei B48 EC50, b = EC50 of control for 5, 6, 7) it was 0.288 µM; in data set [1] (a = EC50 of control for 1, 3, 4, read-out: L. mexicana EC50), 1.1 µM; in data set [1] (b = EC50 of control for 5, 6, 7, read-out: L. mexicana EC50) it was 0.76 µM. Also, the EC50 in the data set with T. b. brucei s427 [2] (Trypanosoma brucei, a = EC50 of control for 1, 3, 4) was determined as 0.0066 µM; in the data set on T. b. brucei s427 [2] (Trypanosoma brucei, b = EC50 of control for 5, 6, 7), 0.0052 µM; in the data set with T. evansi (AnTat 3/3) (setting [5]), 0.016 µM; in the data set with T. evansi (AnTat 3/3) (setting [6]), 0.0025 µM. Also, the “T. b. brucei B48 RF” value in the data set on T. b. brucei B48 was “approximately 50”; with T. b. brucei B48 (a = control for 1, 3, 4), 47.3; in the data set with T. b. brucei B48 (b = control for 5, 6, 7), 55.4.
On to `N=C(N)c1ccc(N=NNc2ccc(C(=N)N)cc2)cc1` [DA, diminazene aceturate, reference compound], for which the EC50 stood at 0.51 µM in data set [3] (setting [5]) and 0.46 µM in data set [3] (setting [6]).
Turning to `CCC(=O)O[C@H]1[C@@H](OC(C)=O)[C@H]2[C@H]([C@@H]3[C@@H](OC(C)=O)[C@@H]4[C@H]([C@H](C)C=C5OC(=O)[C@@](C)(O)[C@@]54C)[C@]31C)[C@@H](O)C(=O)[C@H]1C[C@@H]3O[C@@H]3[C@H](OC(C)=O)[C@]21C` [Compound 4, Taccalonolide A 12-propanoate], in the data set on T. equiperdum (BoTat1), the “T. equiperdum RF” value worked out at 1.5. For the same compound, the “T. equiperdum SI” value in the data set with T. equiperdum (BoTat1) is over 1.8. For the same compound, the EC50 in the data set on T. equiperdum (BoTat1) (setting [7]) is 77.7 ± 10.5 µM; with T. b. brucei B48 (setting [8]) it was 75.1 ± 12.3 µM; in data set [1] (promastigotes, average ± SEM, read-out: L. mexicana EC50) it was over 280 µM; in the data set on HEK 293 cells, over 140 µM; in the data set with T. b. brucei s427 [2] (Trypanosoma brucei, average ± SEM, at least three independent determinations) it was 53.4 µM; in the data set on T. b. brucei s427 [2] (average ± SEM, at least three independent determinations) it was 53.3 ± 8.6 µM. The EC50 in the data set on T. evansi (AnTat 3/3) (average ± SEM) was 82.7 ± 7.4 µM; in data set [3] (setting [9]), over 140 µM. Besides, the “T. b. brucei B48 RF” value with T. b. brucei B48 came to 1.4. Besides, the “T. b. brucei B48 SI” value in the data set with T. b. brucei B48 is listed as over 1.9. Also, the “L. mexicana EC50” value in data set [1] (promastigotes, average ± SEM) is “low activity”. Besides, in the data set on T. b. brucei s427 [2], the “T. b. brucei s427 SI” value is listed as over 2.6. Also, in the data set with T. evansi (AnTat 3/3), the “T. evansi RF” value amounted to 1.6. The “T. evansi SI” value in the data set on T. evansi (AnTat 3/3) is over 1.7. In addition, the “activity against T. b. brucei s427” value with T. b. brucei s427 [4] is recorded as 3.13 µg/mL; in the data set with T. b. brucei s427 [4] (printed in brackets beside the µg/mL value) it was 4.6 µM. Further, in data set [3], the “T. congolense RF” value was over 2.8.
As for `COc1ccc(C(=O)C[C@H](O)c2c(O)cc(OC)cc2OC)cc1` [Compound 1, (S)-3-hydroxy-3-(2″-hydroxy-4″,6″-dimethoxyphenyl)-1-(4′-methoxyphenyl)propan-1-one], the “T. equiperdum RF” value in the data set with T. equiperdum (BoTat1) is listed as 0.60. In the data set on T. equiperdum (BoTat1), the “T. equiperdum SI” value is given as over 14. In addition, the EC50 in the data set on T. equiperdum (BoTat1) (setting [7]) is about 20 µM; with T. equiperdum (BoTat1) (average ± SEM), 21.4 ± 3.9 µM; in the data set on T. b. brucei B48 (setting [8]), 50.2 ± 15 µM; in data set [1] (read-out: L. mexicana EC50, promastigotes, average ± SEM), 581 ± 3 µM; in the data set on HEK 293 cells, over 300 µM; in the data set on T. b. brucei s427 [2] (Trypanosoma brucei), 35.5 ± 3.6 µM. For the same compound, the EC50 with T. evansi (AnTat 3/3) (average ± SEM) was found to be 46 ± 2.4 µM; in data set [3] (setting [9]), 246 ± 5 µM. Besides, the “T. b. brucei B48 RF” value with T. b. brucei B48 is 1.4. For the same compound, the “T. b. brucei B48 SI” value in the data set with T. b. brucei B48 is listed as over 6.0. Further, in the data set with HEK 293 cells (highest tested concentration 100 or 200 µg/mL (1: 300 µM; 4: 140 µM; 5: 427 µM)), the “toxicity to HEK 293 cells at the highest concentration tested” value is recorded as “non-toxic”. In addition, the “T. b. brucei s427 SI” value in the data set with T. b. brucei s427 [2] is on record as over 8.5. Also, the “T. evansi RF” value in the data set with T. evansi (AnTat 3/3) is on record as 1.3. The “T. evansi SI” value in the data set on T. evansi (AnTat 3/3) is over 6.5. In addition, in data set [3], the “T. congolense RF” value came to 6.9. Moreover, the “T. congolense SI” value in data set [3] (SI = EC50 (HEK)/EC50(parasite)) is on record as over 1.2.

Usually EC50 stands for the midpoint of the concentration-response curve.
